In US20070037833A1, “Compositions and methods for inhibiting neurodegeneration” (priority 2005, published 2007):
Where “and” joins values, the source holds several entries; their conditions need not be identical. Identical values can stand only once. Entries after “also recorded” stand apart in the source; their conditions may differ.

Legend:
MAP kinase = assay: Immunoblot for phosphoMAPK in spinal cord cultures; assay type: cell-based, rat; details: 24 hours treatment
Procedure: (§1) Cells were lysed in 1% NP-40 lysis buffers containing protease inhibitors, subjected to SDS-PAGE and immunoblotted as previously described (Fryer et al., 1999; Fryer et al., 2000). For immunoprecipitation, lysates from 60 mm dishes were pre-cleared by incubation with protein A beads (Santa Cruz), incubated with primary antibody (4 μg/ml)×2 hours then 50 μL of beads added and incubated overnight with gentle agitation at 4° C. Beads were pelleted, washed 5× with 10 mM Tris pH 7.4+0.5 mM EGTA+0.5 mM EDTA+0.1% NP40 before elution in 1× Laemelli sample buffer. Antibody sources: BD Transduction Labs—TrkB and MAP Kinase used at 1:500, Cell Signaling—Akt 1:1000; phosphoTrk (tyr490) 1:1000; phospho p42/44 MAP Kinase (thr 202/tyr204) 1:1000; phosphoAkt (ser473) 1:500; IGFI antibody (tyr 1131) 1:500. Upstate—adenosine A2a 1:1000. Sigma—actin 1:200. Biosource—active src (clone 28) 1:200.
(§2) We next asked about the effect of the adenosine A2 receptor antagonism on Trk signaling. Cultures of spinal cord cells (grown in the presence of a cocktail of trophic factors including 10 ng/ml BDNF) received KW6002 (1 μM), MRS1754 (50 nM) or vehicle (DMSO 0.1%) and 24 hrs. later, lysates were prepared for immunoblots for Trk and the MAP kinase downstream signaling module (FIG. 2, panel a). Immunoblots for phosphoTrk and phosphoMAPK were employed to monitor the state of activation of these proteins.
(§3) We followed up these observations by determining the effect of enprofylline on Trk signaling and determined the extent to which the resultant biochemical changes mimic the effects of direct pharmacological Trk antagonism with CEP4416. […] The effect of drug treatment on AKT was particularly marked. […] To determine the specificity of these agents, we examined their effect on Insulin-like growth factor 1 (IGF1) signaling through the IGF receptor tyrosine kinase (IGFR). […] It is unlikely that phosphodiesterase activity of enprofylline can explain these observations as increased cAMP levels enhance, not suppress, TrkB activation (Boulanger and Poo, 1999; Ji et al., 2005).

[1] = system: motor neurons in embryonic rat spinal cord cultures; assay: Excitotoxicity assay (100 μM kainic acid) in mixed spinal cord cultures; assay type: cell-based; details: for % of motor neurons killed (cell death) after excitotoxic insult: 4 day pre-treatment prior to 100 μM kainic acid; for excitotoxic motor neuron death: drug for 4 days (added 4 and 2 days) prior to 100 μM kainic acid 1 h, SMI-32(+) motor neurons counted 24 h later
Procedure: Unless otherwise specified, BDNF was added to all cultures.
Many previous in vitro investigations have identified motor neurons in mixed spinal cord cell culture by immunostaining for non-phosphorylated neurofilaments (or peripherin) and restricting analysis to cells with a soma diameter of 25 μm or greater (Carriedo et al., 2000; Hu and Kalb, 2003). We wanted to confirm the validity of this approach using an independent method for determining whether a given cell is a motor neuron. To specifically identify motor neurons in our cultures we purified these cells by metrizamide gradient and immunopanning techniques (Henderson et al., 1993; Fryer et al., 1999), live-labeled them with CM-DiI, and added these fluorescently-tagged, bona fide motor neurons to mixed cell cultures at the time of initial plating. All CM-DiI labeled cells stained for motor neurons markers such as non-phosphorylated neurofilament H (using antibody, SMI-32), peripherin, choline acetyl transferase (ChAT) and islet ½ (FIG. 1, panel a.). We then subjected spinal cord cultures to an excitotoxic insult and determined motor neuron survival using multiple methods for identifying motor neurons. […] Since all SMI-32 (+) cells with cell body diameter of 25 μm or greater were CM-DiI (+) and all CM-DiI (+) cells were SMI-32 (+), for the remainder of the studies herein, we could confidently study motor neuron death in vitro by counting SMI-32 (+) cells with a cell body diameter of 25 μm or greater.

src-family kinases (SFK) = assay: Immunoblot for active SFKs (clone 28 antibody) in spinal cord cultures; assay type: cell-based, rat; details: 24 hours treatment; listed as MRS 1754
Procedure: as §1
The precise mechanism by which G-protein coupled receptors trans-activate receptor tyrosine kinases is complex and to some extent receptor-subtype specific (Luttrell et al., 1999; Downward, 2003; Piiper and Zeuzem, 2004; Waters et al., 2004). […] If this pathway was operative in spinal cord neurons, then antagonism of adenosine A2a receptors might lead to reduced src activation and antagonism of SFKs might be neuro-protective. Src is negatively regulated by phosphorylation of tyrosine 529 (refers to human src sequence) and an antibody that recognizes a de-phospho epitope in this region (“clone 28”) is a reliable measure of active src and SFKs (Kawakatsu et al., 1996). We began by asking for adenosine A2a receptors and active SFKs are present in the same cells and if so, their subcellular distribution. Pure motor neurons, grown in the presence of BDNF were immunostained with a rabbit anti-adenosine A2a receptor and the clone 28 antibody. One hundred percent of motor neurons expressed both antigens and on dendrites, the immunoreactivity formed discrete fine puncta (FIG. 5a). Many, but not all, puncta were stained with both antibodies. […]

Trk = assay: Immunoblot for phosphoTrk in spinal cord cultures; assay type: cell-based, rat; details: 24 hours treatment
Procedure: as §1, §2, §3

[2] = system: motor neurons expressing G59S p150^glued; assay: Motor neuron death from HSV-expressed mutant p150glued in spinal cord cultures; assay type: cell-based, rat; details: 6 days post-infection; treatment daily or every other day
Source text: (§4) Various cDNAs were cloned into the PrpUC amplicon plasmid and were used to generate recombinant HSV as previously described (Neve et al., 1997). The titer of viruses used in these studies were routinely 3-5×10^7 plaque-forming units/ml. The cDNA for wild type/mutant SOD and wild type/mutant p150^glued were gifts of D. Borchelt and E. Holzbaur, respectively. The K295R mutant version of chick src was a gift of J. Brugge.
(§5) Mutations in superoxide dismutase (SOD) or the p150^glued subunit of dynactin are known to account for a familial form of ALS in a subpopulation of individuals (Rosen, 1993; Puls et al., 2003; Bruijn et al., 2004). We inquired whether expression the mutant forms of SOD or p150^glued caused motor neuron death in vitro and if Trk antagonism was neuroprotective. Recombinant herpes simplex viruses (HSVs) were generated that expressed wild type or mutant form of SOD (G85R) and wild type or mutant p150^glued (G59S). […] Spinal cord cultures were infected with virus at 14 DIV and the number of motor neurons was determined 2, 4, 6 or 8 days later (FIG. 4, panel a.).
(§6) We next determined if KW6002 could protect motor neurons from the toxic effects of mutant proteins. Spinal cord cultures were infected with viruses expressing wild type or mutant versions of SOD or p150^glued at 14 DIV, then treated with drug or vehicle for 4 days (FIG. 4, panel b.). […]

[3] = system: motor neurons expressing G85R SOD; assay: Motor neuron death from HSV-expressed mutant SOD in spinal cord cultures; assay type: cell-based, rat; details: 6 days post-infection; treatment daily or every other day
Source text: as §4, §5, §6

[4] = system: motor neurons in embryonic rat spinal cord cultures; details: Mojsilovic-Petrovic et al., 2005; cited from earlier work
[5] = system: IGF receptor tyrosine kinase (IGFR); assay: Immunoblot for phospho-IGFR in spinal cord cultures; assay type: cell-based, rat; details: 5 nM, 30 min
Procedure: as §1, §3

CCCn1c(=O)c2[nH]c(-c3ccc(OCC(=O)Nc4ccc(C#N)cc4)cc3)nc2n(CCC)c1=O [MRS1754]
abundance of phosphoMAPK (MAP kinase): indistinguishable from the vehicle control
% of motor neurons killed (cell death) after excitotoxic insult [1]: 50%
% of motor neurons killed (cell death) after excitotoxic insult ([1]; listed as MRS 1754): ~40%
abundance of active SFKs (src-family kinases (SFK)): only reduced in cultures treated with KW6002
abundance of phosphoTrk (Trk): indistinguishable from the vehicle control

Nc1ncnc2c1ncn2C1CCCO1 (stereo not drawn) [SQ 22536]
% of motor neurons killed (cell death) after excitotoxic insult [1]: 40% and 42±4%
basal survival of motor neurons ([1]; 4 day pre-treatment, without excitotoxic challenge): did not adversely affect the basal survival of motor neurons

N#Cc1cc2[nH]c(=O)c(=O)[nH]c2cc1[N+](=O)[O-] [CNQX]
motor neuron survival / toxicity of G59S p150glued [2]: significantly greater number of motor neurons; also recorded: completely prevented the toxicity of mutant protein expression
motor neuron survival / toxicity of G85R SOD [3]: significantly greater number of motor neurons; also recorded: completely prevented the toxicity of mutant protein expression

C=C(C)[C@H]1CN[C@H](C(=O)O)[C@H]1CC(=O)O [kainic acid]
loss of motor neurons ([1]; 100 μM for 1 hour, counted 24 hours later, 14-16 DIV): ~45%

Cc1ccc(-c2nn(C(C)(C)C)c3ncnc(N)c23)cc1 [PP1]
% motor neuron survival after excitotoxic challenge ([1]; SFK inhibition before excitotoxicity assay): 100±2%
number of motor neurons surviving excitotoxic challenge ([1]; SFK inhibition, versus LacZ or vehicle): statistically significant greater number of motor neurons
abundance of phosphoTrk (Trk): reduction in the abundance of phosphorylated Trk; also recorded: reduction in the abundance of phosphoTrk

C[C@]12O[C@H](C[C@]1(O)CO)n1c3ccccc3c3c4c(c5c6ccccc6n2c5c31)CNC4=O [CEP701]
excitotoxic motor neuron death [1]: No motor neuron death occurred
excitotoxic motor neuron death ([1]; listed as CEP-701): completely blocked the loss of SMI(+) neurons

CCCn1c(=O)c2[nH]c(C3CCCC3)nc2n(CCC)c1=O [DPCPX]
excitotoxic cell death in pre-treated cultures (previous observations) [4]: death occurred

IGF1: Insulin-like growth factor 1
IGFR phosphorylation upon acute administration [5]: robust induction of phospho-IGFR; also recorded: strong increase in IGFR phosphorylation

CCCC(=O)Nc1ncnc2c1ncn2[C@@H]1O[C@@H]2COP(=O)(O)O[C@H]2[C@H]1OC(=O)CCC [db-cAMP, dibutryl-cAMP]
% of motor neurons killed (cell death) after excitotoxic insult [1]: −2±3%
excitotoxic motor neuron death [1]: No excitotoxic cell death occured

O=S(=O)(NCCNC/C=C/c1ccc(Br)cc1)c1cccc2cnccc12 [H89]
% of motor neurons killed (cell death) after excitotoxic insult [1]: 40% and 53±5%

Nc1nc(NCCc2ccc(O)cc2)nc2nc(-c3ccco3)nn12 [ZM241385]
excitotoxic cell death in pre-treated cultures (previous observations) [4]: no excitotoxic cell death
